From US20150119244A1, “AGRICULTURAL USES OF HYTd” (Agrinos AS, priority 2011, published 2015)

Tested on: potatoes
Assay: Potato trial in soil infested with fungi, test vs Metam-Sodium (Example 4)
Text: Three hundred liters of Metam Sodium was applied per hectare.

## CNC(=S)S [Metam-Sodium]
Potatoes of size 1st
  Kilos: 0.32 Kilos
  Pieces: 1
Potatoes of size 4ta
  Kilos: 3.63 Kilos
  Pieces: 88
Potatoes of size 2d
  Kilos: 6.46 Kilos
  Pieces: 35
Potatoes of size 3d
  Kilos: 2.67 Kilos
  Pieces: 24
Potatoes of size GIANT
  Kilos: 0.43 Kilos
  Pieces: 1
Potatoes of size MONO
  Kilos: 1.47 Kilos
  Pieces: 6
potatoes, TOTAL of all sizes
  Kilos: 15.0 Kilos
  Pieces: 155
